From patent US12077503B2, “Substituted cyclic amides and their use as herbicides” (FMC CORPORATION, priority 2015, dated 2024)
Read-outs that look alike come from different tables or passages of the source.

Assays:
Assay type in all cases: in vivo
[1] = test system: Galium (catchweed bedstraw, Galium aparine); assay: Test A postemergence; conditions: Galium, post-emergence, 240 h; for pest or weed control at 125 g/ha: 125 g ai/ha
How it was run: (§1)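 Greenhouse, ~10 d after spray; visual injury vs untreated controls, 0 = no effect, 100 = complete control. Preemergence: directed soil spray over planted seeds. Postemergence: plants 2–10 cm, 1–2 leaf stage. Loam/sand blend. Compound in non-phytotoxic solvent with surfactant.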

[2] = test system: pigweed (Amaranthus retroflexus); assay: Test A postemergence; conditions: Amaranthus retroflexus, post-emergence, 240 h; for pest or weed control at 125 g/ha: 125 g ai/ha
How it was run: as §1

[3] = test system: corn (Zea mays); assay: Test A postemergence; conditions: Zea mays, post-emergence, 240 h; for plant injury at 125 g/ha: 125 g ai/ha
How it was run: as §1

[4] = test system: Kochia (Kochia scoparia); assay: Test A postemergence; conditions: Bassia scoparia, post-emergence, 240 h; for pest or weed control at 125 g/ha: 125 g ai/ha
How it was run: as §1

[5] = test system: sedge, umbrella (small-flower umbrella sedge, Cyperus difformis); assay: Test B flooded paddy test; conditions: Cyperus difformis, Flood, 250 g ai/ha
How it was run: (§2)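 2-leaf plants; pots flooded 3 cm over soil; cpd added to paddy water; depth held; greenhouse 13–15 d; visual rating vs controls, 0 = no effect, 100 = complete control.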

[6] = test system: ducksalad (Heteranthera limosa); assay: Test B flooded paddy test; conditions: Heteranthera limosa, Flood, 250 g ai/ha
How it was run: as §2

[7] = test system: barnyardgrass (Echinochloa crus-galli); assay: Test B flooded paddy test; conditions: Echinochloa crus-galli, Flood, 250 g ai/ha
How it was run: as §2

[8] = test system: rice (Oryra sativa); assay: Test B flooded paddy test; conditions: Oryza sativa, Flood, 250 g ai/ha
How it was run: as §2

[9] = test system: giant foxtail (Setaria faberii); assay: Test A preemergence; conditions: Setaria faberi, pre-emergence, 240 h, read-out: Plant response rating, Foxtail, Giant; for pest or weed control at 125 g/ha: 125 g ai/ha
How it was run: as §1

[10] = test system: ragweed (common ragweed, Ambrosia elatior); assay: Test A preemergence; conditions: Ambrosia artemisiifolia, pre-emergence, 240 h, read-out: Plant response rating, Ragweed; for pest or weed control at 125 g/ha: 125 g ai/ha
How it was run: as §1

[11] = test system: barnyardgrass (Echinochloa crus-galli); assay: Test A preemergence; conditions: Echinochloa crus-galli, pre-emergence, 240 h, read-out: Plant response rating, Barnyardgrass; for pest or weed control at 125 g/ha: 125 g ai/ha
How it was run: as §1

[12] = test system: ryegrass, Italian (Italian ryegrass, Lolium multiflorum); assay: Test A preemergence; conditions: Lolium multiflorum, pre-emergence, 240 h, read-out: Plant response rating, Ryegrass, Italian; for pest or weed control at 125 g/ha: 125 g ai/ha
How it was run: as §1

[13] = test system: pigweed (Amaranthus retroflexus); assay: Test A preemergence; conditions: Amaranthus retroflexus, pre-emergence, 240 h, read-out: Plant response rating, Pigweed; for pest or weed control at 125 g/ha: 125 g ai/ha
[14] = test system: Kochia (Kochia scoparia); assay: Test A preemergence; conditions: Bassia scoparia, pre-emergence, 240 h, read-out: Plant response rating, Kochia; for pest or weed control at 125 g/ha: 125 g ai/ha
How it was run: as §1

[15] = preemergence, visual rating after approx. 10 d, 0 to 100 scale where 0 is no effect and 100 is complete control
[16] = Preemergence, 31 g ai/ha, 0 to 100 scale (0 no effect, 100 complete control)
[17] = 500 g ai/ha, preemergence, 0 to 100 scale (0 no effect, 100 complete control)
[18] = Preemergence, 0 to 100 scale (0 no effect, 100 complete control)

SMILES: CN1CC[C@H](c2cccc(OC(F)(F)F)c2)[C@@H](C(=O)Nc2ccccc2C(F)(F)F)C1=O [Compound 806]
- pest or weed control at 125 g/ha ([1]; postemergence, visual injury rating after approximately 10 d, read-out: Galium plant response rating (0 to 100 scale, 0 no effect, 100 complete control)): 0%
- pest or weed control at 31 g/ha ([1]; Postemergence, 31 g ai/ha, visual injury after approx. 10 d, 0 to 100 scale, 0 no effect, 100 complete control, read-out: Plant response rating, Galium): 0%
- pest or weed control at 125 g/ha ([2]; postemergence, visual injury rating after approximately 10 d, read-out: Pigweed plant response rating (0 to 100 scale, 0 no effect, 100 complete control)): 0%
- pest or weed control at 31 g/ha ([2]; Postemergence, 31 g ai/ha, visual injury after approx. 10 d, 0 to 100 scale, 0 no effect, 100 complete control, read-out: Plant response rating, Pigweed): 0%
- plant injury at 125 g/ha ([3]; postemergence, visual injury rating after approximately 10 d, read-out: Corn plant response rating (0 to 100 scale, 0 no effect, 100 complete control)): 0%
- Corn plant response rating (crop injury, 0 = no effect, 100 = complete kill) at 31 g/ha ([3]; Postemergence, 31 g ai/ha, visual injury after approx. 10 d, 0 to 100 scale, 0 no effect, 100 complete control): 0%
- pest or weed control at 125 g/ha ([4]; postemergence, visual injury rating after approximately 10 d, read-out: Kochia plant response rating (0 to 100 scale, 0 no effect, 100 complete control)): 0%
- pest or weed control at 31 g/ha ([4]; Postemergence, 31 g ai/ha, visual injury after approx. 10 d, 0 to 100 scale, 0 no effect, 100 complete control, read-out: Plant response rating, Kochia): 0%
- pest or weed control at 250 g/ha ([5]; scale of 0 to 100 where 0 is no effect and 100 is complete control, read-out: Sedge, Umbrella plant response rating): 0%
- pest or weed control at 250 g/ha ([6]; scale of 0 to 100 where 0 is no effect and 100 is complete control, read-out: Ducksalad plant response rating): 75%
- pest or weed control at 250 g/ha ([7]; scale of 0 to 100 where 0 is no effect and 100 is complete control, read-out: Barnyardgrass plant response rating): 0%
- pest or weed control at 250 g/ha ([8]; scale of 0 to 100 where 0 is no effect and 100 is complete control, read-out: Rice plant response rating): 0%
- pest or weed control at 125 g/ha [9, 15]: 0%
- pest or weed control at 31 g/ha [9, 16]: 0%
- pest or weed control at 125 g/ha [10, 15]: 0%
- pest or weed control at 31 g/ha [10, 16]: 0%
- pest or weed control at 125 g/ha [11, 15]: 0%
- pest or weed control at 31 g/ha [11, 16]: 0%
- pest or weed control at 125 g/ha [12, 15]: 0%
- pest or weed control at 31 g/ha [12, 16]: 0%
- pest or weed control at 125 g/ha [13, 15]: 0%
- pest or weed control at 31 g/ha [13, 16]: 0%
- pest or weed control at 125 g/ha [14, 15]: 0%
- pest or weed control at 31 g/ha [14, 16]: 0%

SMILES: CN1CC[C@H](c2cccc(C(F)(F)F)c2)[C@@H](C(=O)Nc2cccc(F)c2F)C1=O [Compound 1330]
- pest or weed control at 125 g/ha ([1]; Postemergence, visual rating about 10 d after treatment, read-out: Galium plant response rating (0 to 100 scale)): 30%
- pest or weed control at 500 g/ha ([1]; Postemergence, 500 g ai/ha, visual injury, 0 to 100 scale (0 no effect, 100 complete control), approx. 10 d, read-out: Plant response rating, Galium): 30%
- pest or weed control at 125 g/ha ([2]; Postemergence, visual rating about 10 d after treatment, read-out: Pigweed plant response rating (0 to 100 scale)): 0%
- pest or weed control at 500 g/ha ([2]; Postemergence, 500 g ai/ha, visual injury, 0 to 100 scale (0 no effect, 100 complete control), approx. 10 d, read-out: Plant response rating, Pigweed): 0%
- plant injury at 125 g/ha ([3]; Postemergence, visual rating about 10 d after treatment, read-out: Corn plant response rating (0 to 100 scale)): 90%
- Corn plant response rating (crop injury, 0 = no effect, 100 = complete kill) at 500 g/ha ([3]; Postemergence, 500 g ai/ha, visual injury, 0 to 100 scale (0 no effect, 100 complete control), approx. 10 d): 0%
- pest or weed control at 125 g/ha ([4]; Postemergence, visual rating about 10 d after treatment, read-out: Kochia plant response rating (0 to 100 scale)): 0%
- pest or weed control at 500 g/ha ([4]; Postemergence, 500 g ai/ha, visual injury, 0 to 100 scale (0 no effect, 100 complete control), approx. 10 d, read-out: Plant response rating, Kochia): 20%
- pest or weed control at 250 g/ha ([5]; 360 h, visually evaluated after 13 to 15 d, read-out: Plant response rating, Sedge, Umbrella (0 to 100 scale where 0 is no effect and 100 is complete control)): 0%
- pest or weed control at 250 g/ha ([6]; 360 h, visually evaluated after 13 to 15 d, read-out: Plant response rating, Ducksalad (0 to 100 scale where 0 is no effect and 100 is complete control)): 90%
- pest or weed control at 250 g/ha ([7]; 360 h, visually evaluated after 13 to 15 d, read-out: Plant response rating, Barnyardgrass (0 to 100 scale where 0 is no effect and 100 is complete control)): 85%
- pest or weed control at 250 g/ha ([8]; 360 h, visually evaluated after 13 to 15 d, read-out: Plant response rating, Rice (0 to 100 scale where 0 is no effect and 100 is complete control)): 0%
- pest or weed control at 500 g/ha [9, 17]: 90%
- pest or weed control at 125 g/ha [9, 18]: 90%
- pest or weed control at 500 g/ha [10, 17]: 50%
- pest or weed control at 125 g/ha [10, 18]: 0%
- pest or weed control at 500 g/ha [11, 17]: 90%
- pest or weed control at 125 g/ha [11, 18]: 90%
- pest or weed control at 500 g/ha [12, 17]: 50%
- pest or weed control at 125 g/ha [12, 18]: 50%
- pest or weed control at 500 g/ha [13, 17]: 0%
- pest or weed control at 125 g/ha [13, 18]: 0%
- pest or weed control at 500 g/ha [14, 17]: 90%
- pest or weed control at 125 g/ha [14, 18]: 20%
